pIC50: −log10 of the molar value.
Biological target: T1, human ENT1 (Homo sapiens, UniProt Q99808)
T1 sequence (Q99808 1-456): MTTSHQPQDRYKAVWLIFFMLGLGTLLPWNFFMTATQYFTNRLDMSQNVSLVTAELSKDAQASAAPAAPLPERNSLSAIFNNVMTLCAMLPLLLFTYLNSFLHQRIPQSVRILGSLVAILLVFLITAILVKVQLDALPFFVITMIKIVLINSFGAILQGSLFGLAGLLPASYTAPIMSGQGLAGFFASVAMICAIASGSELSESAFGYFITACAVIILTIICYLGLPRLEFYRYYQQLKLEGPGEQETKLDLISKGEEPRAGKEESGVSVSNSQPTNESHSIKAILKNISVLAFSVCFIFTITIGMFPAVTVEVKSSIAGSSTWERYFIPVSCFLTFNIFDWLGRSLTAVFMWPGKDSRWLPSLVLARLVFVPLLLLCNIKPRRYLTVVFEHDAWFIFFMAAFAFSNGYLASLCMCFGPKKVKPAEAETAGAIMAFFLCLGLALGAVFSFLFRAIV
Test: ENT1 binding assay (competition with Sahenta-DY647 on JAR cells)
Parameters: JAR cells expressing ENT1 were bought from ATCC; host or cells: JAR cells
Details: binned IC50
Procedure, shortened: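 JAR cells were incubated with test compounds and the fluorescent ligand Sahenta-DY647 in competition. Plates were washed twice by centrifugation (4 min, 400 rcf, 4 °C). Binding potency was derived from the final fluorescence.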

SMILES | pIC50
COCCN(CCOC)c1nc(N2CCC(OC)CC2)c2nc(N(CCOC)CCOC)nc(NCc3cccc(OC(F)F)c3)c2n1 [Compound 144, N4-(3-(difluoromethoxy)benzyl)-N2,N2,N6,N6-tetrakis(2-methoxyethyl)-8-(4-methoxypiperidin-1-yl)pyrimido[5,4-d]pyrimidine-2,4,6-triamine] | 6.30 to 7.00
COCCN(CCOC)c1nc(N2CCC(OC)CC2)c2nc(NCCCn3ccnc3)nc(N3CCC(OC)CC3)c2n1 [Compound 134, N2-(3-(1H-imidazol-1-yl)propyl)-N6,N6-bis(2-methoxyethyl)-4,8-bis(4-methoxypiperidin-1-yl)pyrimido[5,4-d]pyrimidine-2,6-diamine] | 6.00 to 6.30
COCCN(CCOC)c1nc(N2CCC(C(N)=O)CC2)c2nc(N(CCOC)CCOC)nc(N3CCC(OC)CC3)c2n1 [Compound 75, 1-(2,6-bis(bis(2-methoxyethyl)amino)-8-(4-methoxypiperidin-1-yl)pyrimido[5,4-d]pyrimidin-4-yl)piperidine-4-carboxamide] | 6.30 to 7.00
COCCN(CCOC)c1nc(N2CCN(C)C(=O)C2)c2nc(N3CCN(C(=O)OC)CC3)nc(N3CCC(OC)CC3)c2n1 [Compound 284, methyl 4-(6-(bis(2-methoxyethyl)amino)-4-(4-methoxypiperidin-1-yl)-8-(4-methyl-3-oxopiperazin-1-yl)pyrimido[5,4-d]pyrimidin-2-yl)piperazine-1-carboxylate] | 6.00 to 6.30
COCCN(CCOC)c1nc(N2CC[C@H](F)C2)c2nc(N(CCOC)CCOC)nc(N3CCC(OC)CC3)c2n1 [Compound 102, (S)-4-(3-fluoropyrrolidin-1-yl)-N2,N2,N6,N6-tetrakis(2-methoxyethyl)-8-(4-methoxypiperidin-1-yl)pyrimido[5,4-d]pyrimidine-2,6-diamine] | > 7.00
COCCN(CCOC)c1nc(N2CCC(OC)CC2)c2nc(N(CC(C)O)CC(C)O)nc(N3CCN(C)C(=O)C3)c2n1 (stereo not shown) [Compound 327, 4-(2-(bis(2-hydroxypropyl)amino)-6-(bis(2-methoxyethyl)amino)-8-(4-methoxypiperidin-1-yl)pyrimido[5,4-d]pyrimidin-4-yl)-1-methylpiperazin-2-one] | > 7.00
COCCN(CCOC)c1nc(N2CCC(OC)CC2)c2nc(N(CCOC)CCOC)nc(NCCCNS(C)(=O)=O)c2n1 [Compound 180, N-(3-((2,6-bis(bis(2-methoxyethyl)amino)-8-(4-methoxypiperidin-1-yl)pyrimido[5,4-d]pyrimidin-4-yl)amino)propyl)methanesulfonamide] | 6.00 to 6.30
COCCN(CCO)c1nc(N2CCC(OC)CC2)c2nc(N(CCOC)CCOC)nc(N3CCC(OC)CC3)c2n1 [Compound 34, 2-((6-(bis(2-methoxyethyl)amino)-4,8-bis(4-methoxypiperidin-1-yl)pyrimido[5,4-d]pyrimidin-2-yl)(2-methoxyethyl)amino)ethanol] | 6.00 to 6.30
COCCN(CCOC)c1nc(N2CCN(c3nnc(C)o3)CC2)c2nc(N(CCOC)CCOC)nc(N3CCC(OC)CC3)c2n1 [Compound 135, N2,N2,N6,N6-tetrakis(2-methoxyethyl)-4-(4-methoxypiperidin-1-yl)-8-(4-(5-methyl-1,3,4-oxadiazol-2-yl)piperazin-1-yl)pyrimido[5,4-d]pyrimidine-2,6-diamine] | 6.00 to 6.30
COCCN(CCOC)c1nc(N2CCCN(C(C)=O)CC2)c2nc(N(CCOC)CCOC)nc(N3CCC(OC)CC3)c2n1 [Compound 98, 1-(4-(2,6-bis(bis(2-methoxyethyl)amino)-8-(4-methoxypiperidin-1-yl)pyrimido[5,4-d]pyrimidin-4-yl)-1,4-diazepan-1-yl)ethanone] | 6.30 to 7.00
COCCN(CCOC)c1nc(N2CCN(C)C(=O)C2)c2nc(N3CCN(C(C)=O)CC3)nc(N3CCC(OC)CC3)c2n1 [Compound 281, 4-(6-(4-acetylpiperazin-1-yl)-2-(bis(2-methoxyethyl)amino)-8-(4-methoxypiperidin-1-yl)pyrimido[5,4-d]pyrimidin-4-yl)-1-methylpiperazin-2-one] | 6.00 to 6.30
CCOC(=O)C1CCN(c2nc(N(CCOC)CCOC)nc3c(N4CCC(C(=O)OCC)CC4)nc(N(CCOC)CCOC)nc23)CC1 [Compound 3, diethyl 1,1′-(2,6-bis(bis(2-methoxyethyl)amino)pyrimido[5,4-d]pyrimidine-4,8-diyl)bis(piperidine-4-carboxylate)] | 6.30 to 7.00
COC1CCN(c2nc(N(CCOC(C)=O)CCOC(C)=O)nc3c(N4CCC(OC)CC4)nc(N(CCOC(C)=O)CCOC(C)=O)nc23)CC1 [Compound 15, ((4,8-bis(4-methoxypiperidin-1-yl)pyrimido[5,4-d]pyrimidine-2,6-diyl)bis(azanetriyl))tetrakis(ethane-2,1-diyl)tetraacetate] | > 7.00

Results, then the compound that gave them:

pIC50 | SMILES
6.30 to 7.00 | CCN(CCN1CCCCC1)c1nc(N2CCN(C)C(=O)C2)c2nc(N(CCOC)CCOC)nc(N3CCC(OC)CC3)c2n1 [Compound 272, 4-(6-(bis(2-methoxyethyl)amino)-2-(ethyl(2-(piperidin-1-yl)ethyl)amino)-8-(4-methoxypiperidin-1-yl)pyrimido[5,4-d]pyrimidin-4-yl)-1-methylpiperazin-2-one]
> 7.00 | COCCN(CCOC)c1nc(N2CCN(c3ncn(C)n3)CC2)c2nc(N(CCOC)CCOC)nc(NCc3cccc(Cl)c3)c2n1 [Compound 221, N4-(3-chlorobenzyl)-N2,N2,N6,N6-tetrakis(2-methoxyethyl)-8-(4-(1-methyl-1H-1,2,4-triazol-3-yl)piperazin-1-yl)pyrimido[5,4-d]pyrimidine-2,4,6-triamine]
6.30 to 7.00 | CCN(CCN1CCCC1)c1nc(N2CCN(C)C(=O)C2)c2nc(N(CCOC)CCOC)nc(N3CCC(OC)CC3)c2n1 [Compound 267, 4-(6-(bis(2-methoxyethyl)amino)-2-(ethyl(2-(pyrrolidin-1-yl)ethyl)amino)-8-(4-methoxypiperidin-1-yl)pyrimido[5,4-d]pyrimidin-4-yl)-1-methylpiperazin-2-one]
> 7.00 | COCCN(CCOC)c1nc(N2CCN(c3ncn(C)n3)CC2)c2nc(N(CCOC)CCOC)nc(N(C)Cc3cccc(OC)c3)c2n1 [Compound 243, N4-(3-methoxybenzyl)-N2,N2,N6,N6-tetrakis(2-methoxyethyl)-N4-methyl-8-(4-(1-methyl-1H-1,2,4-triazol-3-yl)piperazin-1-yl)pyrimido[5,4-d]pyrimidine-2,4,6-triamine]
> 7.00 | COCCN(CCOC)c1nc(N2CCN(C)C(=O)C2)c2nc(N(CCOC)CCOC)nc(NCc3cccc(F)c3)c2n1 [Compound 207, 4-(2,6-bis(bis(2-methoxyethyl)amino)-8-((3-fluorobenzyl)amino)pyrimido[5,4-d]pyrimidin-4-yl)-1-methylpiperazin-2-one]
6.30 to 7.00 | COCCN(CCOC)c1nc(N2CCN(C)C(=O)C2)c2nc(N3CCNC(=O)C3)nc(N3CCC(OC)CC3)c2n1 [Compound 278, 4-(2-(bis(2-methoxyethyl)amino)-8-(4-methoxypiperidin-1-yl)-6-(3-oxopiperazin-1-yl)pyrimido[5,4-d]pyrimidin-4-yl)-1-methylpiperazin-2-one]
6.30 to 7.00 | CCN(CCN1CCCC1)c1nc(N2CCN(C)C(=O)C2)c2nc(N(CCOC)Cc3cc(OC)c(OC)c(OC)c3)nc(N3CCC(OC)CC3)c2n1 [Compound 300, 4-(2-(ethyl(2-(pyrrolidin-1-yl)ethyl)amino)-6-((2-methoxyethyl)(3,4,5-trimethoxybenzyl)amino)-8-(4-methoxypiperidin-1-yl)pyrimido[5,4-d]pyrimidin-4-yl)-1-methylpiperazin-2-one]
6.30 to 7.00 | COCCN(CCOC)c1nc(N2CCn3cncc3C2)c2nc(N(CCOC)CCOC)nc(N3CCN(C)C(=O)C3)c2n1 [Compound 250, 4-(2,6-bis(bis(2-methoxyethyl)amino)-8-(5,6-dihydroimidazo[1,5-a]pyrazin-7(8H)-yl)pyrimido[5,4-d]pyrimidin-4-yl)-1-methylpiperazin-2-one]
6.30 to 7.00 | COCCN(CCOC)c1nc(N2CC(C)(C)C2)c2nc(N(CCOC)CCOC)nc(N3CCC(OC)CC3)c2n1 [Compound 100, 4-(3,3-dimethylazetidin-1-yl)-N2,N2,N6,N6-tetrakis(2-methoxyethyl)-8-(4-methoxypiperidin-1-yl)pyrimido[5,4-d]pyrimidine-2,6-diamine]
6.30 to 7.00 | COCCCN(CCCOC)c1nc(N2CCC(OC)CC2)c2nc(N(CCCO)CCCO)nc(N3CCC(OC)CC3)c2n1 [Compound 330, 3,3′-((6-(bis(3-methoxypropyl)amino)-4,8-bis(4-methoxypiperidin-1-yl)pyrimido[5,4-d]pyrimidin-2-yl)azanediyl)bis(propan-1-ol)]
6.30 to 7.00 | COCCN(CCOC)c1nc(N2CCN(c3ncn(C)n3)CC2)c2nc(N(CCOC)CCOC)nc(NCC(C)C)c2n1 [Compound 219, N4-isobutyl-N2,N2,N6,N6-tetrakis(2-methoxyethyl)-8-(4-(1-methyl-1H-1,2,4-triazol-3-yl)piperazin-1-yl)pyrimido[5,4-d]pyrimidine-2,4,6-triamine]
> 7.00 | COCCN(CCOC)c1nc(N2CCN(C)C(=O)C2)c2nc(N3CCN(c4ncccc4N)CC3)nc(N3CCC(OC)CC3)c2n1 [Compound 294, 4-(6-(4-(3-aminopyridin-2-yl)piperazin-1-yl)-2-(bis(2-methoxyethyl)amino)-8-(4-methoxypiperidin-1-yl)pyrimido[5,4-d]pyrimidin-4-yl)-1-methylpiperazin-2-one]

Source: patent US20230146675A1, “PYRIMIDO[5,4-d]PYRIMIDINE DERIVATIVES AS ENT INHIBITORS FOR THE TREATMENT OF CANCERS, AND COMBINATION THEREOF WITH ADENOSINE RECEPTOR ANTAGONISTS” (ITEOS BELGIUM SA, priority 2020, published 2023)
